Structures are written as SMILES.

The target in the first assay is T1, B1R receptor of the rat (rB1R) (Rattus norvegicus, UniProt P97583).
T1 construct: expressed in transfected cells; host or cells: CHO K1 cells
T1 sequence (P97583 1-337): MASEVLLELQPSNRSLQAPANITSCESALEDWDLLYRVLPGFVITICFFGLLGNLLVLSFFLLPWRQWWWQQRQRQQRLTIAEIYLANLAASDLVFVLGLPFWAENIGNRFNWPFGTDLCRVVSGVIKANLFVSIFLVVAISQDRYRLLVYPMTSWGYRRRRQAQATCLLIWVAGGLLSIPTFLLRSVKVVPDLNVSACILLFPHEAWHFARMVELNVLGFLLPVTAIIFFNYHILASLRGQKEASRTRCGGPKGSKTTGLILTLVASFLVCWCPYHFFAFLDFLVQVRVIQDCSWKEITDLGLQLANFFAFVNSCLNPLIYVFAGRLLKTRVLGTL
The experiment in a line: Functional investigation on the bradykinin 1 receptor (B1R), FLIPR Ca2+ assay, rB1R cells. It is filed as cell-based. Conditions: 10 μM test substance; CHO K1 cells with rat B1R; agonist Des-Arg9 bradykinin; % of maximum achievable inhibition; 10 µM. The procedure, abridged: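 Ca2+ influx is measured as peak Fluo-4 fluorescence in a FLIPR protocol with two substance additions, following Lys-Des-[MUT] bradykinin (0.5 nM) or Des-[MUT] bradykinin (100 nM) challenge. Varying antagonist concentrations give % inhibition relative to maximum achievable and an IC50. Determinations in duplicate or triplicate, repeated independently (N>=2).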
Consider `COc1cc(C)c(S(=O)(=O)Nc2ccc3ccn(CC(=O)N4CCC(CCN5CCCC5)CC4)c3c2)c(C)c1` [Compound G-01, 4-Methoxy-2,6-dimethyl-N-[1-[2-oxo-2-[4-(2-pyrrolidin-1-yl-ethyl)-piperidin-1-yl]-ethyl]-1H-indol-6-yl]-benzenesulfonic acid amide], for which the “B1R antagonism, rat [10 μM] % inhibition” value is reported as 78%. On the same count and under the same terms, to `COc1cc(C)c(S(=O)(=O)Nc2cccc3ccn(CC(=O)N4CCC5(CC4)CCN(c4ccncc4)CC5)c23)c(C)c1` [Compound G-05, 4-Methoxy-2,6-dimethyl-N-[1-[2-oxo-2-(9-pyridin-4-yl-3,9-diazaspiro[5.5]undecan-3-yl)-ethyl]-1H-indol-7-yl]-benzenesulfonic acid amide] belongs 96%. As for `O=C(CCn1ccc2cccc(N3Cc4cccc(Cl)c4C3=O)c21)N1CCC2(CC1)CCN(c1ccncc1)CC2` [Compound G-10, 7-Chloro-2-(1-(3-oxo-3-(9-(pyridin-4-yl)-3,9-diazaspiro[5.5]undecan-3-yl)propyl)-1H-indol-7-yl)isoindolin-1-one], the “B1R antagonism, rat [10 μM] % inhibition” value came out at 76%.

Staying with this assay, now noted: CHO-K1, 10 μM test substance; CHO K1 cells with rat B1R; agonist Des-Arg9 bradykinin; % of maximum achievable inhibition; read-out: B1R antagonism, rat [10 μM] % inhibition.
In general, inhibition refers to the change of the read-out against control, counted positive when it falls. As to `COc1cc(C)c(S(=O)(=O)Nc2cccc3ccn(CC(=O)N4CCC(CCN5CCCC5)CC4)c23)c(C)c1` [Compound G-02, 4-Methoxy-2,6-dimethyl-N-[1-[2-oxo-2-[4-(2-pyrrolidin-1-yl-ethyl)-piperidin-1-yl]-ethyl]-1H-indol-7-yl]-benzenesulfonic acid amide], the inhibition at 10 µM turned out to be 100%. The same measure, in the same setting: to `COc1cc(C)c(S(=O)(=O)Nc2cccc3ccn(CC(=O)N4CCC5(CC4)C(=O)NCN5c4ccccc4)c23)c(C)c1` [Compound G-04, 4-Methoxy-2,6-dimethyl-N-[1-[2-oxo-2-(1-oxo-4-phenyl-2,4,8-triazaspiro[4.5]decan-8-yl)-ethyl]-1H-indol-7-yl]-benzenesulfonic acid amide] belongs 62%; to `COc1cc(C)c(S(=O)(=O)Nc2cccc3ccn(CC(=O)N4CCC(OCCN5CCCC5)(c5cccnc5)CC4)c23)c(C)c1` [Compound G-06, 4-Methoxy-2,6-dimethyl-N-[1-[2-oxo-2-[4-pyridin-3-yl-4-(2-pyrrolidin-1-yl-ethoxy)-piperidin-1-yl]-ethyl]-1H-indol-7-yl]-benzenesulfonic acid amide], 70%; to `O=C(CCn1ccc2ccc(N3Cc4cccc(Cl)c4C3=O)cc21)N1CCC2(CC1)CCN(c1ccncc1)CC2` [Compound G-07, 7-Chloro-2-[1-[3-oxo-3-(9-pyridin-4-yl-3,9-diazaspiro[5.5]undecan-3-yl)-propyl]-1H-indol-6-yl]-2,3-dihydro-isoindol-1-one], 100%. Consider `O=C(Cn1ccc2ccc(N3Cc4cccc(Cl)c4C3=O)cc21)N1CCC2(CC1)CCN(c1ccncc1)CC2` [Compound G-08, 7-Chloro-2-[1-[2-oxo-2-(9-pyridin-4-yl-3,9-diazaspiro[5.5]undecan-3-yl)-ethyl]-1H-indol-6-yl]-2,3-dihydro-isoindol-1-one], for which the inhibition at 10 µM is 97%. For the molecule `O=C(Cn1ccc2cccc(N3Cc4cccc(Cl)c4C3=O)c21)N1CCC2(CC1)CCN(c1ccncc1)CC2` [Compound G-11, 7-Chloro-2-(1-(2-oxo-2-(9-(pyridin-4-yl)-3,9-diazaspiro[5.5]undecan-3-yl)ethyl)-1H-indol-7-yl)isoindolin-1-one], the inhibition at 10 µM was -21%. Same read-out and setting: to `O=C(Cn1ccc2ccc(N3Cc4cccc(Cl)c4C3=O)cc21)N1CCC2(CCN(c3ccncc3)CC2)C1` [Compound G-12, 7-Chloro-2-(1-(2-oxo-2-(8-(pyridin-4-yl)-2,8-diazaspiro[4.5]decan-2-yl)ethyl)-1H-indol-6-yl)isoindolin-1-one] belongs 92%; to `COc1cc(C)c(S(=O)(=O)Nc2cccc3ccn(CC(=O)N4CCC5(CC4)CC(c4ccncc4)=NO5)c23)c(C)c1` [Compound G-13, 4-Methoxy-2,6-dimethyl-N-(1-(2-oxo-2-(3-(pyridin-4-yl)-1-oxa-2,8-diazaspiro[4.5]dec-2-en-8-yl)ethyl)-1H-indol-7-yl)benzenesulfonic acid amide], 96%; to `COc1cc(C)c(S(=O)(=O)Nc2cccc3ccn(CC(=O)N4CCC5(CCN(c6ccncc6)CC5)C4)c23)c(C)c1` [Compound G-14, 4-Methoxy-2,6-dimethyl-N-(1-(2-oxo-2-(8-(pyridin-4-yl)-2,8-diazaspiro[4.5]decan-2-yl)ethyl)-1H-indol-7-yl)benzenesulfonic acid amide], 96%. For `O=C(Cn1ccc2ccc(N3Cc4cccc(Cl)c4C3=O)cc21)N1CCC2(CC1)CC(c1ccncc1)=NO2` [Compound G-15, 7-Chloro-2-(1-(2-oxo-2-(3-(pyridin-4-yl)-1-oxa-2,8-diazaspiro[4.5]dec-2-en-8-yl)ethyl)-1H-indol-6-yl)isoindolin-1-one], the inhibition at 10 µM was determined as 54%. The same measure, in the same setting: to `COc1cc(C)c(S(=O)(=O)Nc2cccc3ccn(CC(=O)N4CCC(N5CCc6cc(CN7CCCCC7)ccc6C5)C4)c23)c(C)c1` (stereo not drawn) [Compound G-16, 4-Methoxy-2,6-dimethyl-N-(1-(2-oxo-2-(3-(6-(piperidin-1-ylmethyl)-3,4-dihydroisoquinolin-2(1H)-yl)pyrrolidin-1-yl)ethyl)-1H-indol-7-yl)benzenesulfonic acid amide] belongs 96%; to `COc1cc(C)c(S(=O)(=O)Nc2cccc3ccn(CC(=O)N4CCC5(CCN(c6ccncc6)C5)C4)c23)c(C)c1` (stereo not drawn) [Compound G-17, 4-Methoxy-2,6-dimethyl-N-(1-(2-oxo-2-(7-(pyridin-4-yl)-2,7-diazaspiro[4.4]nonan-2-yl)ethyl)-1H-indol-7-yl)benzenesulfonic acid amide], 95%; to `COc1cc(C)c(S(=O)(=O)Nc2cccc3ccn(CC(=O)N4CCC5(CCC(N6CCC6)CC5)CC4)c23)c(C)c1` [Compound G-18, N-(1-(2-(9-(azetidin-1-yl)-3-azaspiro[5.5]undecan-3-yl)-2-oxoethyl)-1H-indol-7-yl)-4-methoxy-2,6-dimethylbenzenesulfonic acid amide], 99%. Turning to `O=C(Cn1ccc2ccc(N3Cc4cccc(Cl)c4C3=O)cc21)N1CCC2(CCC(Oc3ccncc3)CC2)CC1` [Compound G-19, 7-Chloro-2-(1-(2-oxo-2-(9-(pyridin-4-yloxy)-3-azaspiro[5.5]undecan-3-yl)ethyl)-1H-indol-6-yl)isoindolin-1-one], the inhibition at 10 µM turned out to be 94%. As for `O=C(Cn1ccc2ccc(N3Cc4cccc(Cl)c4C3=O)cc21)N1CCC2(CCC(N3CC(F)(F)C3)CC2)CC1` [Compound G-20, 7-Chloro-2-(1-(2-(9-(3,3-difluoroazetidin-1-yl)-3-azaspiro[5.5]undecan-3-yl)-2-oxoethyl)-1H-indol-6-yl)isoindolin-1-one], the inhibition at 10 µM came out at 13%.

Turning to `O=C(Cn1ccc2ccc(N3Cc4cccc(Cl)c4C3=O)cc21)N1CCC2(CCC(N3CCC3)CC2)CC1` [Compound G-21, 2-(1-(2-(9-(Azetidin-1-yl)-3-azaspiro[5.5]undecan-3-yl)-2-oxoethyl)-1H-indol-6-yl)-7-chloroisoindolin-1-one], the inhibition at 10 µM was 43%. The same measure, in the same setting: under `COc1cc(C)c(S(=O)(=O)Nc2cccc3ccn(CC(=O)N4CCC5(CCC(Oc6ccncc6)CC5)CC4)c23)c(C)c1` [Compound G-22, 4-Methoxy-2,6-dimethyl-N-(1-(2-oxo-2-(9-(pyridin-4-yloxy)-3-azaspiro[5.5]undecan-3-yl)ethyl)-1H-indol-7-yl)benzenesulfonic acid amide] stands 99%; under `Cn1c2c(c3c(Cl)cccc31)C(=O)N(c1ccc3ccn(CC(=O)N4CCC5(CC4)CCN(c4ccncc4)CC5)c3c1)C2` [Compound G-23, 8-Chloro-4-methyl-2-[1-[2-oxo-2-(9-pyridin-4-yl-3,9-diazaspiro[5.5]undecan-3-yl)-ethyl]-1H-indol-6-yl]-3,4-dihydro-2H-pyrrolo[3,4-b]indol-1-one], 106%.

On to `COc1cc(C)c(S(=O)(=O)NCc2cccc3ccn(CC(=O)N4CCC5(CC4)CCN(c4ccncc4)CC5)c23)c(C)c1` [Compound G-24, 4-Methoxy-2,6-dimethyl-N-[[1-[2-oxo-2-(9-pyridin-4-yl-3,9-diazaspiro[5.5]undecan-3-yl)-ethyl]-1H-indol-7-yl]-methyl]-benzenesulfonic acid amide], for which the inhibition at 10 µM amounted to 103%. As to `Cc1cccc2c1C(=O)N(c1ccc3ccn(CC(=O)N4CCC5(CC4)CCN(c4ccncc4)CC5)c3c1)C2` [Compound G-26, 7-Methyl-2-[1-[2-oxo-2-(9-pyridin-4-yl-3,9-diazaspiro[5.5]undecan-3-yl)-ethyl]-1H-indol-6-yl]-2,3-dihydro-isoindol-1-one], the inhibition at 10 µM was 102%.

Regarding `Cc1ccc2n1C(=O)N(c1ccc3ccn(CC(=O)N4CCC5(CC4)CCN(c4ccncc4)CC5)c3c1)C2` [Compound G-27, 5-Methyl-2-[1-[2-oxo-2-(9-pyridin-4-yl-3,9-diazaspiro[5.5]undecan-3-yl)-ethyl]-1H-indol-6-yl]-1,2-dihydro-pyrrolo[2,1-e]imidazol-3-one], the inhibition at 10 µM was 99%.

The values are drawn from patent US8492559B2, “Substituted indole compounds” (Gruenenthal GmbH, priority 2009, dated 2013).
